pIC50: −log10 of the molar value.
biological target: T1, FLAG-tagged full length PHD2 (Homo sapiens, UniProt Q9GZT9); test: PHD2 inhibition assay (time resolved fluorescence, HIF-1α peptide hydroxylation, VHL complex detection); format: biochemical; conditions: 0.2 μM 2-oxoglutarate, 0.5 μM HIF-1α peptide
T1 construct: FLAG-tagged full length PHD2 expressed in and purified from baculovirus-infected Sf9 cells; FLAG; made in house; host or cells: baculovirus-infected Sf9 cells
Procedure: To each well of a 96-well plate was added 1 μL of test compound in DMSO and 20 μl of assay buffer (50 mM Tris pH 7.4/0.01% Tween-20/0.1 mg/ml bovine serum albumin/10 μM ferrous sulfate/i mM sodium ascorbate/20 μg/ml catalase) containing 0.15 μg/ml FLAG-tagged full length PHD2 expressed in and purified from baculovirus-infected Sf9 cells. After a 30 min preincubation at room temperature, the enzymatic reactions were initiated by the addition of 4 μL of substrates (final concentrations of 0.2 μM 2-oxoglutarate and 0.5 μM HIF-1α peptide biotinyl-DLDLEMLAPYIPMDDDFQL (SEQ ID NO: 1)). After 2 hr at room temperature, the reactions were terminated and signals were developed by the addition of a 25 μL quench/detection mix to a final concentration of 1 mM ortho-phenanthroline, 0.1 mM EDTA, 0.5 nM anti-(His)6 LANCE reagent (Perkin-Elmer Life Sciences), 100 nM AF647-labeled streptavidin (Invitrogen), and 2 μg/ml (His)6-VHL complex (S. Tan (2001) Protein Expr. Purif. 21, 224-234). The ratio of time resolved fluorescence signals at 665 and 620 nm was determined, and percent inhibition was calculated relative to an uninhibited control sample run in parallel.

T1 sequence (Q9GZT9 whole entry): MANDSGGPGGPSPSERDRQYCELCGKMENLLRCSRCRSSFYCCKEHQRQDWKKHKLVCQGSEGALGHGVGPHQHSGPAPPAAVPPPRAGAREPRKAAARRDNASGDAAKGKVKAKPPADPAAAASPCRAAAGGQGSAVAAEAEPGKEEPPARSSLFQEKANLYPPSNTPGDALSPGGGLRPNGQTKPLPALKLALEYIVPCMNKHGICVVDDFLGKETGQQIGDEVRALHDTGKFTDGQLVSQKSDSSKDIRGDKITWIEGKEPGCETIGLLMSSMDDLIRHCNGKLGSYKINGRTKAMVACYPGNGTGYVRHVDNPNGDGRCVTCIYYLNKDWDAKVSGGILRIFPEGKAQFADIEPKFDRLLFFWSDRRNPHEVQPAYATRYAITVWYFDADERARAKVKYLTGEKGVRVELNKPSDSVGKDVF

Row | SMILES | pIC50
1 | O=C(NC(c1ccc2ccccc2c1)P(=O)(O)O)c1cnc(-c2cccnn2)nc1O (centres unmarked) [Compound 30-3, (4-Hydroxy-2-(pyridazin-3-yl)pyrimidine-5-carboxamido)(naphthalen-2-yl)methyl phosphonic acid] | 7.70 to 9.30
2 | COc1ccc(C(NC(=O)c2cnc(-c3cccnn3)nc2O)c2ccc([PH](=O)O)cc2)cc1 (centres unmarked) [Compound 9-2, 4-((4-hydroxy-2-(pyridazin-3-yl)pyrimidine-5-carboxamido)(4-methoxyphenyl)methyl)phenylphosphinic acid] | 7.70 to 9.30
3 | O=C(NC(c1ccccc1)P(=O)(O)O)c1cnc(-c2cccnn2)nc1O (centres unmarked) [Compound 30-1, (4-hydroxy-2-(pyridazin-3-yl)pyrimidine-5-carboxamido)(phenyl)methylphosphonic acid] | 7.00 to 7.70
4 | COc1ccc(C(NC(=O)c2cnc(-c3cccnn3)nc2O)c2ccc(CP(=O)(O)O)cc2)cc1 (centres unmarked) [Compound 32-1, 4-((4-hydroxy-2-(pyridazin-3-yl)pyrimidine-5-carboxamido)(4-methoxyphenyl)methyl)benzylphosphonic acid] | 7.70 to 9.30
5 | O=C(Cc1cccc(P(=O)(O)O)c1)Nc1cnc(-c2cccnn2)nc1O [Compound 35-1, 3-(2-(4-hydroxy-2-(pyridazin-3-yl)pyrimidin-5-ylamino)-2-oxoethyl)phenyl phosphonic acid] | 5.00 to 7.00
6 | C[C@H](NC(=O)c1cnc(-n2cccn2)nc1O)c1ccc(P(=O)(O)O)cc1 [Compound 15-3, (S)-4-(1-(4-hydroxy-2-(1H-pyrazol-1-yl)pyrimidine-5-carboxamido)ethyl)phenylphosphonic acid] | 5.00 to 7.00
7 | COc1ccc(C(NC(=O)c2cnc(-c3ccccn3)nc2O)c2cccc(P(=O)(O)O)c2)cc1 (centres unmarked) [Compound 5-1, 3-((4-hydroxy-2-(pyridin-2-yl)pyrimidine-5-carboxamido)(4-methoxyphenyl)methyl)phenylphosphonic acid] | 7.70 to 9.30
8 | CC(NC(=O)c1cnc(-n2cccn2)nc1O)c1ccc(P(=O)(O)O)cc1 (centres unmarked) [Compound 15-1, 4-(1-(4-hydroxy-2-(1H-pyrazol-1-yl)pyrimidine-5-carboxamido)ethyl)phenylphosphonic acid] | 7.00 to 7.70
9 | C[C@@H](NC(=O)c1cnc(-c2cccnn2)nc1O)c1ccc(P(=O)(O)O)cc1 [Compound 3-5a, (R)-4-(1-(4-hydroxy-2-(pyridazin-3-yl)pyrimidine-5-carboxamido)ethyl)phenylphosphonic acid] | 7.00 to 7.70
10 | CP(=O)(O)c1ccc(C(NC(=O)c2cnc(-n3cccn3)nc2O)c2ccccc2)cc1 (centres unmarked) [Compound 8-4, 4-((4-Hydroxy-2-(1H-pyrazol-1-yl)pyrimidine-5-carboxamido)(phenyl)methyl)phenyl(methyl)phosphinic acid] | 7.70 to 9.30
11 | COc1ccc(C(NC(=O)c2cnc(-c3cccnn3)nc2O)c2cccc(P(=O)(O)O)c2)cc1 (centres unmarked) [Compound 34-1, 3-((4-hydroxy-2-(pyridazin-3-yl)pyrimidine-5-carboxamido)(4-methoxyphenyl)methyl)phenylphosphonic acid] | 7.70 to 9.30
12 | CCOP(=O)(O)c1ccc(C(NC(=O)c2cnc(-n3cccn3)nc2O)c2ccccc2)cc1 (centres unmarked) [Compound 8-2, Ethyl hydrogen 4-((4-hydroxy-2-(1H-pyrazol-1-yl)pyrimidine-5-carboxamido)(phenyl)methyl)phenylphosphonate] | 7.70 to 9.30
13 | CCOP(=O)(OCC)c1ccc(C(C(=O)Nc2cnc(-c3cccnn3)nc2O)c2ccccc2)cc1 (centres unmarked) [Compound 14-2, Diethyl 4-(2-(4-hydroxy-2-(pyridazin-3-yl)pyrimidin-5-ylamino)-2-oxo-1-phenylethyl)phenylphosphonate] | 5.00 to 7.00
14 | CCOP(=O)(OCC)C(NC(=O)c1cnc(-n2cccn2)nc1O)c1ccc(OC)cc1 (centres unmarked) [Compound 10-1, Diethyl (4-hydroxy-2-(1H-pyrazol-1-yl)pyrimidine-5-carboxamido)(4-methoxyphenyl)methylphosphonate] | 7.70 to 9.30
15 | CCOP(=O)(OCC)c1ccc(C(C(=O)Nc2cnc(-n3cccn3)nc2O)C(C)C)cc1 (centres unmarked) [Compound 13-1, Diethyl 4-(1-(4-hydroxy-2-(1H-pyrazol-1-yl)pyrimidin-5-ylamino)-3-methyl-1-oxobutan-2-yl)phenylphosphonate] | 7.00 to 7.70
16 | C[C@H](NC(=O)c1cnc(-c2cccnn2)nc1O)c1ccc(P(=O)(O)O)cc1 [Compound 3-7a, (S)-4-(1-(4-hydroxy-2-(pyridazin-3-yl)pyrimidine-5-carboxamido)ethyl)phenylphosphonic acid] | 5.00 to 7.00
17 | CCOP(=O)(OCC)c1ccc(C(NC(=O)c2cnc(-n3cccn3)nc2O)c2ccccc2)cc1 (centres unmarked) [Compound 8-1, Diethyl 4-((4-hydroxy-2-(1H-pyrazol-1-yl)pyrimidine-5-carboxamido)(phenyl)methyl)phenylphosphonate] | 7.70 to 9.30
18 | CCOP(C)(=O)c1ccc(C(NC(=O)c2cnc(-n3cccn3)nc2O)c2ccccc2)cc1 (centres unmarked) [Compound 8-3, Ethyl 4-((4-hydroxy-2-(1H-pyrazol-1-yl)pyrimidine-5-carboxamido)(phenyl)methyl)phenyl(methyl)phosphinate] | 7.70 to 9.30
19 | COc1ccc(C(NC(=O)c2cnc(-c3ccccn3)nc2O)c2ccc([PH](=O)O)cc2)cc1 (centres unmarked) [Compound 1-1-6, 4-((4-hydroxy-2-(pyridin-2-yl)pyrimidine-5-carboxamido)(4-methoxyphenyl)methyl)phenylphosphinic acid] | 7.70 to 9.30
20 | CCOP(C)(=O)c1ccc(C(NC(=O)c2cnc(-c3ccccn3)nc2O)c2ccccc2)cc1 (centres unmarked) [Compound 2-4, ethyl 4-((4-hydroxy-2-(pyridin-2-yl)pyrimidine-5-carboxamido)(phenyl)methyl)phenyl(methyl)phosphinate] | 7.70 to 9.30
21 | CC(C)(NC(=O)c1cnc(-c2cccnn2)nc1O)c1ccc(-c2ccc(P(=O)(O)O)cc2)nc1 [Compound 33-1, 4-(5-(2-(4-hydroxy-2-(pyridazin-3-yl)pyrimidine-5-carboxamido)propan-2-yl)pyridine-2-yl)phenylphosphonic acid] | 7.70 to 9.30
22 | CC(NC(=O)c1cnc(-c2cccnn2)nc1O)c1ccc(P(=O)(O)O)cc1 (centres unmarked) [Compound 3-3a, 4-(1-(4-Hydroxy-2-(pyridazin-3-yl)pyrimidine-5-carboxamido)ethyl)phenylphosphonic acid] | 5.00 to 7.00
23 | CP(=O)(O)c1ccc(C(NC(=O)c2cnc(-c3ccccn3)nc2O)c2ccccc2)cc1 (centres unmarked) [Compound 2-5, 4-((4-hydroxy-2-(pyridin-2-yl)pyrimidine-5-carboxamido)(phenyl)methyl)phenyl(methyl)phosphinic acid] | 7.70 to 9.30
24 | CCOC(=O)CNP(=O)(NCC(=O)OCC)c1ccc(C(NC(=O)c2cnc(-c3ccccn3)nc2O)c2ccc(OC)cc2)cc1 (centres unmarked) [Compound 1-1-5, diethyl 2,2′-((4-((4-hydroxy-2-(pyridin-2-yl)pyrimidine-5-carboxamido)(4-methoxyphenyl)methyl)phenyl)phosphoryl)bis(azanediyl)diacetate] | 7.00 to 7.70
25 | CP(=O)(O)c1cccc([C@@H](NC(=O)c2cnc(-n3cccn3)nc2O)c2ccccc2)c1 [Compound 25-1, 3-((S)-(4-hydroxy-2-(1H-pyrazol-1-yl)pyrimidine-5-carboxamido)(phenyl)methyl)phenyl(methyl)phosphinic acid] | 7.70 to 9.30
26 | COc1ccc(C(NC(=O)c2cnc(-c3ccccn3)nc2O)c2ccc(P(=O)(O)O)cc2)cc1 (centres unmarked) [Compound 1-1-2, 4-((4-hydroxy-2-(pyridin-2-yl)pyrimidine-5-carboxamido)(4-methoxyphenyl)methyl)phenylphosphonic acid] | 7.70 to 9.30

From patent publication US9079930B2, “Substituted pyrimidines” (MERCK SHARP & DOHME CORP., priority 2011, dated 2015)
